Measurements as given in US9006191B2, “Silencing of polo-like kinase expression using interfering RNA” (Protiva Biotherapeutics, Inc., priority 2007, dated 2015).
Entries after “also recorded” stand apart in the source; their conditions may differ.

Legend:
IFIT1 mRNA, serum IFNα = conditions: mouse, in vivo, iv
Hep3B liver tumors = assay: Intrahepatic Hep3B tumor model (survival, body weight, tumor burden); format: in vivo
Procedure: SNALP containing PLK-1 siRNA (“1:57” SNALP formulation: 1.4% PEG-cDMA; 57.1% DLinDMA; 7.1% DPPC; and 34.3% cholesterol) were tested for their effects on the survival of […] mice bearing Hep3B liver tumors.
Intrahepatic tumor models. Liver tumors were established in mice by direct intrahepatic injection of Hep3B or Neuro2a tumor cells (45). Female scid/beige mice (Charles River Laboratories) and male A/J mice (Jackson Laboratories) were used as hosts for the Hep3B and Neuro2a tumors, respectively. Animals received Anafen by SC injection immediately prior to surgery. Individual mice were anaesthetized by isoflourane gas inhalation and eye lube applied to prevent excessive eye drying. While maintained under gas anaesthesia, a single 1.5 cm incision across the midline was made below the sternum and the left lateral hepatic lobe exteriorized. 1×10^6 Hep3B cells or 1×10^5 Neuro2a cells suspended in 25 μL PBS were injected slowly into the lobe at a shallow angle using a Hamilton syringe and 30G needle. A swab was then applied to the puncture wound to stop any bleeding prior to suturing. Mice were allowed to recover from anaesthesia in a sterile cage and monitored closely for 2-4 h before being returned to conventional housing.
Eight to 11 days after tumor implantation, mice were randomized into treatment groups. siRNA SNALP formulations or PBS vehicle control were administered by standard intravenous injection via the lateral tail vein, calculated on a mg siRNA/kg basis according to individual animal weights (10 mL/kg injection volume). Body weights were then monitored throughout the duration of the study as an indicator of developing tumor burden and treatment tolerability. For efficacy studies, defined humane endpoints were determined as a surrogate for survival. Assessments were made by qualified veterinary technicians based on a combination of clinical signs, weight loss, and abdominal distension to define the day of euthanization due to tumor burden.
Measurement of human PLK-1 and GAPDH mRNA in tumor tissues. Tumors were harvested directly into RNALater and stored at 4° C. until processing. 100 mg tumor tissue was homogenized in Tissue and Lysis Solution (EpiCentre Biotechnologies) containing […] proteinase K (EpiCentre) in a Fastprep tissue homogenizer followed by incubation in a 65° C. waterbath for 15 min and centrifuged to clarify lysates. mRNA analysis in FIG. 33B was performed on purified RNA isolated according the 5′-RACE-PCR protocol. Human PLK-1 and GAPDH mRNA were measured in tumor lystes by the QuantiGene bDNA assay (Panomics) as per the manufacturer's instructions (Quantigene 1.0 Manual). […] Data were expressed as mean PLK-1:GAPDH ratio+/−SD of individual animals. Tumor burden was assessed by homogenizing the complete liver from tumor bearing mice and measuring the total hGAPDH signal (RLU's) within the liver. Values were expressed as hGAPDH RLU/mg total liver.

LS174T cells [1] = assay: Apoptosis/Caspase 3/7 assay in LS174T cells; format: cell-based, human; conditions: SNALP-formulated siRNA, 24-72 h
Procedure: This assay is based on the specific enzymatic cleavage of the Caspase 3/7 substrate (Z-DEVD)-2-Rhodamine 110 to a fluorogenic product and is used to quantify the level of apoptosis in cultured cells.
SNALP containing PLK1424 or PLK773 siRNA (“2:40” SNALP formulation: 2% PEG-cDMA; 40% DLinDMA; 10% DSPC; and 48% cholesterol) were further tested for their effects on inducing the apoptosis of LS174T cells. Cells were plated in triplicate at ˜10,000 cells/well. SNALP dosages were as follows: 30 nM; 10 nM; and 3.3 nM. Caspase 3/7 assays were performed at 24, 48, and 72 hours following transfection. SNALP containing a non-targeting (GFP) siRNA were used as a negative control.

LS174T cells [2] = assay: LS174T cell viability assay; format: cell-based, human; conditions: SNALP-formulated siRNA, 72 h
Procedure: SNALP containing PLK1424 or PLK773 siRNA (“2:40” SNALP formulation: 2% PEG-cDMA; 40% DLinDMA; 10% DSPC; and 48% cholesterol) were tested for their effects on cell viability and silencing of PLK-1 mRNA in HT29 and LS174T human colon cancer cells. Cells were plated in triplicate at ˜10,000 cells/well. SNALP dosages were as follows: 30 nM; 10 nM; 3.3 nM; 1.1 nM; 0.37 nM; and 0.12 nM. Branched DNA mRNA assays were performed 24 hours following transfection. Cell viability assays were performed at 72 hours following transfection. SNALP containing a non-targeting (GFP) siRNA were used as a negative control. […] The effects on cell viability correlated with silencing of the target PLK-1 mRNA.

Neuro2A cells = assay: Neuro2A cell viability assay (CellTiter-Blue); format: cell-based; conditions: mouse Neuro2A cells, SNALP-formulated siRNA, viability at 72 h relative to PBS
Procedure: Various PLK-1 siRNAs were formulated as SNALP (“2:40” SNALP formulation: 2% PEG-cDMA; 40% DLinDMA; 10% DSPC; and 48% cholesterol) and evaluated for their inhibitory effects on cell growth in vitro. HT29 (human colon adenocarcinoma) or Neuro2A (mouse neuroblastoma) cells were treated with various PLK-1 SNALP at a range of siRNA concentrations and their effect on cell viability was evaluated. Viability of cell cultures is expressed as % viability relative to PBS treated controls.
Additional PLK-1 siRNA molecules were formulated as SNALP (“2:40” SNALP formulation: 2% PEG-cDMA; 40% DLinDMA; 10% DSPC; and 48% cholesterol) and evaluated for their inhibitory effects on cell growth in vitro. HT29 or Neuro2A cells were plated in triplicate at 5000 cells/well and 2500 cells/well, respectively. PLK-1 SNALP dosages were as follows: 25 nM; 5 nM; and 1 nM. Cell viability analysis was performed at 72 hours following transfection. SNALP containing a non-targeting (GFP) siRNA were used as a negative control.
Additional PLK-1 siRNA molecules were formulated as SNALP (“2:40” SNALP formulation: 2% PEG-cDMA; 40% DLinDMA; 10% DSPC; and 48% cholesterol) and evaluated for their inhibitory effects on cell growth in vitro. HT29 or Neuro2A cells were plated in triplicate at 5000 cells/well and 2500 cells/well, respectively. PLK-1 SNALP dosages were as follows: 30 nM; 10 nM; and 3.3 nM. Cell viability analysis was performed at 72 hours following transfection. SNALP containing a non-targeting (GFP) siRNA were used as a negative control.

[3] = Hep3B-nu/nu mouse model, 2 mg/kg twice weekly d11-d28

## PLK1424-2/A: 2′OMe-modified PLK1424 duplex, SEQ ID NO:214/215 (same SEQ IDs as PLK1424 1/3 of Table 11) (chain 1 AGANCACCCNCCUNAAANAUU; chain 2 UAUUUAANGAGGGUGANCUUU; siRNA; 2'-O-methyl modifications at selected positions, key for n not given here)
IFIT1 mRNA, serum IFNα
  serum IFNα / serum cytokine response: no measurable IFNα
Hep3B liver tumors; day 22, 1 day after fifth 2 mg/kg dose
  mice with visible tumors at autopsy: 2 of 6
Hep3B liver tumors; scid/beige mice, 6 × 2 mg/kg IV twice weekly, d 10 to d 28
  survival advantage (Kaplan-Meier, Log-rank): significant survival advantage over control treatment

## PLK773: siRNA to human PLK-1, SEQ ID NO:3/4 (UU overhang form 218/219) (chain 1 AGACCUACCUCCGGAUCAA; chain 2 UUGAUCCGGAGGUAGGUCU; RNA, backbone not given here)
LS174T cells [1]
  induction of apoptosis (Caspase 3/7 activity): induced a significant amount of apoptosis in LS174T cells at all SNALP doses tested
LS174T cells [2]
  cell viability / inhibition of cell growth: inhibiting cell growth
Neuro2A cells
  cell viability / inhibition of cell growth: most potent human/mouse cross-reactive siRNA molecules

## PLK1424: siRNA to human PLK-1, SEQ ID NO:1/2 (UU overhang form 211/212) (chain 1 AGAUCACCCUCCUUAAAUA; chain 2 UAUUUAAGGAGGGUGAUCU; further chemistry not given here)
LS174T cells [1]
  induction of apoptosis (Caspase 3/7 activity): induced a significant amount of apoptosis in LS174T cells at all SNALP doses tested; also recorded: dose-dependent induction of apoptosis 48 h after siRNA transfection
LS174T cells [2]
  cell viability / inhibition of cell growth: inhibiting cell growth; also recorded: potent activity
Hep3B liver tumors; [3]
  median survival, Study (A): 45 days
  median survival, study (B): 42 days
Neuro2A cells
  cell viability / inhibition of cell growth: inactivity in the mouse cell line
